# Results from PMC8955829, “Drug Discovery of New Anti-Inflammatory Compounds by Targeting Cyclooxygenases” (Pharmaceuticals, 2022).
# Values joined by “and” are separate entries in the source; they are usually repeats but may differ in a detail not shown here. Equal entries are not always repeated.
# Key:
# [1] = test system: carrageenan-induced rat paw edema; experiment: Carrageenan-induced paw edema in rats; type: in vivo; details: 10 mg/kg orally; for rat paw edema: after 1 h of dosing; for rat paw edema size: evaluated for 5 h, Figure 3
# Excerpt: The carrageenan-induced paw edema model was used to evaluate the compounds’ anti-inflammatory activity. Only carrageenan was given to the control animals. The treatment effect was tracked by observing the improvement of rat paw edema in response to drug administration. Carrageenan injections caused rat paws to grow from 0.3 cm to 0.8 cm in size.
# Following in vitro testing, three compounds with the highest selectivity against COX-2 were chosen for in vivo investigations utilizing the rat paw edema assay. After subcutaneous carrageenan injection into the rodent’s paw, plasma extravasation, tissue proliferation, plasma protein release, and neutrophilic extravasation, all of which are caused by arachidonic acid digestion, produced inflammation. Following the carrageenan infusion, the main phase lasted 2 h. The following process is remodeling, which takes 5 h and begins at the 3rd h. The main stage is distinguished by the appearance of histamine and serotonin. The development of prostaglandins, proteases, and lysosomes causes the second stage of edema. Adult male albino rats weighing 120–150 g were divided into seven groups, each with seven rats, and kept at 25 °C with a 12-h light/dark cycle. Subplantar injection of 0.2 mL of 1% carrageenan solution in 0.9 percent saline into the right hind paw of rats was used to induce swelling and inflammation. To determine the inflammation generated by carrageenan, the Vernier Caliper was used to measure the thickness of rat paws before and after injection. […] Paw edema was measured at 0, 0.5, 1, 2, 3, 4, and 5 h after the drug was administered. The edema inhibition was calculated by calculating the difference in thicknesses between the treated and control groups.
# rat stomach = experiment: Histopathological examination of rat stomach / ulcerogenic effect; type: in vivo; details: single dose 20 mg/kg orally
# Experimental: Compounds 1–3 were examined for ulcerogenic effects in the rat stomach after showing anti-inflammatory advantages in a rat paw test. Rats were deprived for 24 h at 25 °C with a 12 h light/dark cycle. Indomethacin was used as a control. All compounds were given in a single dose of 20 mg/kg orally. After 24 h, the rats were slaughtered, and their stomachs were removed and washed with normal saline. Binocular magnification was used to inspect each group’s stomachs for the existence of a gastric lesion on the mucosa. Following that, the stomachs were kept in 10% w/v formalin for histological investigation, as previously described.
# rat paw = experiment: Histopathological examination of rat paw (H&E, Masson's trichrome); type: in vivo; details: carrageenan-treated rats
# Experimental: The rats’ paws were collected and washed in a saline solution after the end of rat paw experiment. Specimens were fixed in 10% natural formalin for 2 days before being washed overnight with running water. The cleaned samples were dehydrated in ethyl alcohol at increasing percentages, starting with 70% and ending with absolute alcohol. The samples were cleaned by immersing them in xylol for 2 h. For 3 h at 37 °C, the cleared samples were placed in a sealed jar containing 50% paraffin in xylol. The samples were then soaked in melting paraffin for 2 h at 48 °C before being blocked in hard paraffin and sliced into 5-micron slices. The sections were stained with hematoxylin and eosin (H&E) and Masson’s trichrome. Sections were mounted with Canada balsam and covered with a coverslip in preparation for histological examination.
# Raw264.7 cells = experiment: In vitro cytotoxicity, WST-1 assay; type: cell-based, mouse; details: 1 µM, 24 h, presence or absence of LPS (1 ug/mL)
# Experimental: Raw264.7 cells were used to test the effects of compounds 1, 2, and 3 on cell viability and proliferation. Raw264.7 cells were treated for 24 h in a 96-well plate with compounds (1 µM) in the presence or absence of LPS (1 ug/mL). WST1 reagent was added to each well after treatment and incubated for an additional 2 h. Following that, the OD450/620 ratio was determined. […] However, all compounds had no effect on WST1 values or cell morphology in Raw264.7 cells. Raw264.7 cells in a 96-well plate were treated with our compounds (1 uM) in the presence or absence of LPS (1 ug/mL) for 24 h. After treatment, the WST1 reagent was added into each well and incubated for an additional 2 h. After that, OD450/620 was measured.
# Dulbecco’s modified Eagle’s minimum essential medium containing 5% heat-inactivated fetal bovine serum was used to maintain Raw264.7 cells (ATCC). Raw264.7 cells ([…]) in a 96-well plate were treated for 24 h with the indicated compounds at 1 µM or vehicle (DMSO) in the presence or absence of LPS (1 µg/mL) to detect cell viability based on mitochondrial activity. WST-1 solution (Dojindo) was then added to each well and incubated at 37 °C for an additional 2 h. According to a previous study, cell viability was determined using the difference in absorbance at 450 and 620 nm as an indicator [37].
# COX-2 = molecular target: T1, COX-2 (Homo sapiens, UniProt P35354); experiment: COX-2 inhibitor screening assay kit (Cayman); type: biochemical; details: for IC50: three separate experiments
# T1 construct: purchased Cayman Chemical (Ann Arbor, MI, USA)
# T1 sequence (P35354 18-604): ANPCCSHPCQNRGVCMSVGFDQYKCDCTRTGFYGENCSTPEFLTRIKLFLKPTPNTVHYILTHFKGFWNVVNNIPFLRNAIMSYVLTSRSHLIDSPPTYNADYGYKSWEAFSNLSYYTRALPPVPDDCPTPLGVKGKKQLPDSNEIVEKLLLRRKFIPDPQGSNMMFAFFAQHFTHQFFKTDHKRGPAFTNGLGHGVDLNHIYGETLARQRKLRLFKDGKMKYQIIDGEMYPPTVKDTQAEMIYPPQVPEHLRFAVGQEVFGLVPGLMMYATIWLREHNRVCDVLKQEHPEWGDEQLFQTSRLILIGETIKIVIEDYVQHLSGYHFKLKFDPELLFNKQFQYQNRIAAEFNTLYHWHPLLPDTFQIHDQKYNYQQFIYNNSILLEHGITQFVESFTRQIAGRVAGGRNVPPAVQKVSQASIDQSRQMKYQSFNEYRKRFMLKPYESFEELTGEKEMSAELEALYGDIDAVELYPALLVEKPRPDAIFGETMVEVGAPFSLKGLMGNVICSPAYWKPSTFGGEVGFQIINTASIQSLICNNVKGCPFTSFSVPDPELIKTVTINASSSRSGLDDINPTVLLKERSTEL
# Experimental: The test chemicals’ capacity to inhibit the conversion of arachidonic acid to prostaglandin was determined. In test tubes, 25 mM Tris–HCl, pH 8.0, containing 5 mM EDTA, phenol, and 1 mM hematin, was added. The test compounds were dissolved in dimethyl sulfoxide and added in concentrations ranging from 0.005–200 µM. Dimethyl sulfoxide alone was applied to control test containers. COX-1 or COX-2 enzymes were added to test tubes and preincubated for 10 min at 37 °C. The arachidonic acid substrate was added, and the tubes were incubated at 37 °C for 2 min. The compound immunochemical assay was used to calculate the amount of prostaglandin produced. Three separate experiments were used to calculate the IC50 values. The selectivity index was calculated as follows:(1) Selectivity index=IC50COX−1/IC50COX−2
smiles,measurement,setting,value
"COc1ccc2c(c1)c(CC(=O)O)c(C)n2C(=O)c1ccc(Cl)cc1 [Indomethacin, reference compound]",rat paw edema,[1],dramatically reduced rat paw edema
same,"rat stomach collagen deposition, Masson's Trichrome",rat stomach,mild increase in collagen deposition
same,"rat stomach collagen deposition, Masson's Trichrome",rat stomach; 10× magnification,significant collagen deposition
same,"rat stomach histopathology, H&E",rat stomach; 10× magnification,slight degeneration of gastric layers
same,"rat stomach collagen deposition, Masson's Trichrome",rat stomach; 40× magnification,collagen deposition
same,"rat stomach histopathology, H&E",rat stomach; 40× magnification,absence of any signs of an inflammatory reaction
same,"rat paw collagen deposition, Masson's Trichrome stain",rat paw; 10× magnification,slight collagen deposition
same,"rat paw histopathology, H&E",rat paw; 10× magnification,significant decrease in the degree of inflammatory reaction (black star) and a moderate decrease in edema
same,"rat paw histopathology, H&E",rat paw; 40× magnification,slight inflammatory reaction (black star) and edema
"Cc1cccc2[nH]c(C3CCCN(C(=O)c4ccccc4NCC(=O)O)C3)nc12 (stereo not drawn) [Compound 1, [(2-{[3-(4-methyl-1H-benzimidazol-2-yl)piperidin-1-yl]carbonyl}phenyl)amino]acetic acid]",rat paw edema size,[1],significantly reduced rat paw size
same,"rat stomach collagen deposition, Masson's Trichrome",rat stomach; 10× magnification,normal collagen deposition
same,"rat stomach histopathology, H&E",rat stomach; 10× magnification,normal gastric layers
same,"rat stomach collagen deposition, Masson's Trichrome",rat stomach; 40× magnification,normal collagen deposition
same,"rat stomach histopathology, H&E",rat stomach; 40× magnification,absence of any signs of an inflammatory reaction
same,effect on WST1 values (cell viability) and cell morphology,Raw264.7 cells,non-cytotoxic
same,"rat paw histopathology, H&E: edema and inflammatory cell infiltration",rat paw,marked improvement in the degree of edema and the inflammatory cell infiltration
same,"rat paw collagen deposition, Masson's Trichrome stain",rat paw; 10× magnification,slight collagen deposition
same,"rat paw histopathology, H&E",rat paw; 10× magnification,"significant decrease in the dermal thickness, inflammatory reaction in the deep dermis (black star), and moderate improvements in edema"
same,"rat paw histopathology, H&E",rat paw; 40× magnification,slight inflammatory reaction (black star) and edema
O=C(O)[C@H]1C[C@@H](C(=O)NC2CC2)CN(C(=O)c2ccc3[nH]nnc3c2)C1 [Compound 3],rat paw edema size,[1],significantly reduced rat paw size
same,"rat stomach collagen deposition, Masson's Trichrome",rat stomach,mild increase in collagen deposition
same,"rat stomach collagen deposition, Masson's Trichrome",rat stomach; 10× magnification,significant collagen deposition
same,"rat stomach histopathology, H&E",rat stomach; 10× magnification,slight degeneration of gastric layers
same,"rat stomach collagen deposition, Masson's Trichrome",rat stomach; 40× magnification,significant collagen deposition
same,"rat stomach histopathology, H&E",rat stomach; 40× magnification,absence of any signs of an inflammatory reaction
same,SI (selectivity index = IC50 COX-1/IC50 COX-2),COX-2,194.9 and 194.91
same,IC50,COX-2,60 ± 3 nM
same,"rat paw histopathology, H&E: edema and inflammatory cell infiltration",rat paw,weaker action than compounds 1 and 2 manifested by a moderate increase in cell infiltration and edema
same,"rat paw collagen deposition, Masson's Trichrome stain",rat paw; 10× magnification,significant collagen deposition
same,"rat paw histopathology, H&E",rat paw; 10× magnification,significant decrease in the degree of inflammatory reaction (black star) and a moderate decrease in edema
same,"rat paw histopathology, H&E",rat paw; 40× magnification,moderate inflammatory reaction (black star) and edema
COc1cccc(-c2nn(-c3ccccc3)cc2CN(C)CCc2cn[nH]c2)c1 [Compound 5],SI (selectivity index = IC50 COX-1/IC50 COX-2),COX-2,132.64
same,IC50,COX-2,80 ± 9 nM
COc1ccc(CN(Cc2ccc(F)cc2)CC2CCCO2)cc1CO (stereo not drawn) [Compound 4],SI (selectivity index = IC50 COX-1/IC50 COX-2),COX-2,36.3
same,IC50,COX-2,210 ± 10 nM
O=C(O)CC1COCCN1Cc1cccc(-c2ccccn2)c1 (stereo not drawn) [Compound 6],SI (selectivity index = IC50 COX-1/IC50 COX-2),COX-2,190.88
same,IC50,COX-2,60 ± 75 nM
"CCOC(=O)c1cn(-c2cc(C#N)ccc2O)cc(Oc2ccccc2)c1=O [Compound 2, ethyl 1-(5-cyano-2-hydroxyphenyl)-4-oxo-5-phenoxy-1,4-dihydropyridine-3-carboxylate]",rat paw edema size,[1],significantly reduced rat paw size
same,"rat stomach collagen deposition, Masson's Trichrome",rat stomach; 10× magnification,slight collagen deposition
same,"rat stomach histopathology, H&E",rat stomach; 10× magnification,normal gastric layers
same,"rat stomach collagen deposition, Masson's Trichrome",rat stomach; 40× magnification,slight collagen deposition
same,"rat stomach histopathology, H&E",rat stomach; 40× magnification,absence of any signs of an inflammatory reaction
same,effect on WST1 values (cell viability) and cell morphology,Raw264.7 cells,non-cytotoxic
same,"rat paw collagen deposition, Masson's stain",rat paw,lowest
same,"rat paw histopathology, H&E: edema and inflammatory cell infiltration",rat paw,marked anti-inflammatory effect and a pronounced decline in edema and inflammatory cell invasion
same,"rat paw collagen deposition, Masson's Trichrome stain",rat paw; 10× magnification,slight collagen deposition
same,"rat paw histopathology, H&E",rat paw; 10× magnification,substantial decrease in both the inflammatory reaction (black star) and edema
same,"rat paw histopathology, H&E",rat paw; 40× magnification,slight inflammatory reaction (black star) and edema
O=C(O)COc1ccc(Cl)cc1C1CC(=O)Nc2cc3[nH]ncc3cc21 (stereo not drawn) [Compound 7],SI (selectivity index = IC50 COX-1/IC50 COX-2),COX-2,95.068
same,IC50,COX-2,97 ± 15 nM
"O=C(O)Cc1ccccc1Nc1c(Cl)cccc1Cl [Diclofenac, reference compound]",rat paw edema,[1],dramatically reduced rat paw edema
